Experimental data as given in patent publication US9540362B2, “Sphingosine-1-phosphate receptor agonists, methods of preparing the same, and pharmaceutical compositions containing the same as an active agent” (LG LIFE SCIENCES LTD., priority 2013, dated 2017).

Legend:
lymphocytes in blood = assay: Rat peripheral blood lymphocyte decrease; assay type: in vivo; settings: male SD rat, administered once, 1 mg/kg, 6 hours after administration
Procedure: Evaluation of Rat Peripheral Blood Lymphocyte Decrease
Lymphocyte decrease in blood by S1P1 agonist was evaluated using a male SD rat. After adapting a rat weighing about 250 g to a breeding facility for one week, a test compound was administered to it once. At 3 hours, 6 hours, 24 hours and 48 hours after administration, blood was taken from a tail caudal vein, and about 200 μl of the blood was put into an EDTA tube while preventing it from clotting, followed by measurement of the number of lymphocytes in blood. The number of lymphocytes was analyzed by a hematological examination device, Hemoanalyzer. The doses of the test compounds were 3 mg/kg for Example 52, 94, 108, 117, 142, 145, 146, 148 and 149 compounds, and 1 mg/kg for Example 150, 151, 153, 154, 155, 158, 159 and 161 compounds.

[1] = target: human sphingosine-1-phosphate 1 receptor (S1P1 receptor) (Homo sapiens, UniProt P21453); assay: Ca2+ inducing ability using CHO cells overexpressing human S1P1 receptor (Calcium 5 assay kit); assay type: cell-based; settings: CHO cells overexpressing human S1P1, calcium RFU; S1P 1 μM = 100%
human sphingosine-1-phosphate 1 receptor (S1P1 receptor), sequence (P21453 whole entry): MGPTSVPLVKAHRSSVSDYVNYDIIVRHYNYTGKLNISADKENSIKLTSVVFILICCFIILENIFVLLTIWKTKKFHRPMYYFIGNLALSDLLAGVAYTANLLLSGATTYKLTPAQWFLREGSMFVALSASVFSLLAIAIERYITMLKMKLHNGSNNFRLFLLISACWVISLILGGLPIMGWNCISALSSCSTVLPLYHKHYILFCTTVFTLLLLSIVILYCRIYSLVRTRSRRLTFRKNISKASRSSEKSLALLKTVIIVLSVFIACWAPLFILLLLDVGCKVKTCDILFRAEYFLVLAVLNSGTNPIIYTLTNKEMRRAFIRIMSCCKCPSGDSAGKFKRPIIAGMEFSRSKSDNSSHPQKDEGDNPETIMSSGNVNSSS
Description: Evaluation of Ca^2+ inducing ability of test compound using a cell line expressing human sphingosine-1-phosphate
CHO (Chinese hamster ovary) cells which overexpress human sphingosine-1-phosphate 1 receptor (S1P1 receptor) that react with sphingosine-1-phosphate (S1P) are used for a functional test method wherein an increase of calcium indicates a therapeutic efficacy of an agonist compound.
To prepare CHO cells which overexpress human S1P1˜S1P5, human clones for each subtype having HA at the N terminal residue (S1P1: EDG010TN00, S1P2: EDG020TN00, S1P3: EDG030TN00, S1P4: EDG060TN00, S1P5: EDG080TN00) were purchased from the Missouri S&T cDNA Resource Center and co-transfected with G-protein alpha subunit (G-alpha-16) into CHO-K1 cells.
A calcium measurement kit (Calcium 5 assay kit, Molecular Devices) was used to select an agonist compound. The principle of calcium measurement is that calcium-sensitive dyes are applied to cells, they enter into the cytoplasm of the cells during incubation, and when a ligand binds to a certain receptor to release calcium into the cytoplasm, the dyes bind to said calcium to induce fluorescence which is measured. This test method can sensitively measure only the intracellular calcium concentration change because any change that may occur outside the cells is masked by a masking dye.
The experimental procedure was as follows. One day before calcium measurement, CHO cells overexpressing hS1P1˜hS1P5 were dispensed into a 96-well plate (bottom clear black well) in 3×10^4 cells per well and cultured at 37° C. under 5% carbon dioxide condition for one day. 100 μl of calcium dyes mixed with Assay Buffer (1×HBSS, 20 mM HEPES, 2.5 mM probenecid, pH 7.4) were dispensed into culture solution in well and cultured at 37° C. for one hour. Test compounds were dissolved in 100% DMSO to prepare 1 μl solution per each concentration, and each solution was mixed with 199 μl Assay Buffer such that the concentrations were 50, 5, 0.5, 0.05, 0.005 and 0.0005 μM. The plate cultured with the calcium dyes was put into FlaxstationII (Molecular Devices), and the prepared test compounds (the final concentrations of the test compounds: 10, 1, 0.1, 0.01, 0.001 and 0.0001 μM) were programmed to be automatically inoculated in 50 μl per each well. For a total of 90 seconds, RFU (relative fluorescence unit) values were measured. The value of Reference (S1P substance 1 μM) deducting the blank value was set as 100%, and EC50 values of the test compounds were calculated by prism.

| Compound | Lymphocyte count (degree of decrease in lymphocyte number) (lymphocytes in blood) [%] | EC50 [1] [nM] |
| --- | --- | --- |
| CC(C)n1nc(Cl)c2cc(COc3ccc4c(c3)CCC(CN3CCC(C(=O)O)C3)=C4Cl)ccc21 (stereo not shown) [Example 150, 1-[1-chloro-6-(3-chloro-1-isopropyl-1H-indazol-5-ylmethoxy)-3,4-dihydro-naphthalen-2-ylmethyl]-pyrrolidine-3-carboxylic acid] | −82 | 8 |
| CC(C)n1nc(Cl)c2cc(COc3ccc4c(c3)CCC(CN3CC[C@@H](C(=O)O)C3)=C4Cl)ccc21 [Example 151, (R)-1-[1-chloro-6-(3-chloro-1-isopropyl-1H-indazol-5-ylmethoxy)-3,4-dihydro-naphthalen-2-ylmethyl]-pyrrolidine-3-carboxylic acid] | −80 | 11 |
| CC(C)n1nc(Cl)c2cc(COc3ccc4c(c3)CCC(CN3CCC(C(=O)O)CC3)=C4Cl)ccc21 [Example 153, 1-[1-chloro-6-(3-chloro-1-isopropyl-1H-indazol-5-ylmethoxy)-3,4-dihydro-naphthalen-2-ylmethyl]-piperidine-4-carboxylic acid] | −80 | 11 |
| CC(C)n1nc(Cl)c2cc(COc3ccc4c(c3)CCC(CN3CCC(F)(C(=O)O)CC3)=C4Cl)ccc21 [Example 154, 1-[1-chloro-6-(3-chloro-1-isopropyl-1H-indazol-5-ylmethoxy)-3,4-dihydro-naphthalen-2-ylmethyl]-4-fluoro-piperidine-4-carboxylic acid] | −65 | 17 |
| CC(C)n1nc(Cl)c2cc(COc3ccc4c(c3)CCC(CN3CCCC(C(=O)O)C3)=C4Cl)ccc21 (stereo not shown) [Example 155, 1-[1-chloro-6-(3-chloro-1-isopropyl-1H-indazol-5-ylmethoxy)-3,4-dihydro-naphthalen-2-ylmethyl]-piperidine-3-carboxylic acid] | −75 | 27 |
| CC(C)n1nc(Cl)c2cc(COc3ccc4c(c3)CCC(CN3CCCC(F)(C(=O)O)C3)=C4Cl)ccc21 (stereo not shown) [Example 158, 1-[1-chloro-6-(3-chloro-1-isopropyl-1H-indazol-5-ylmethoxy)-3,4-dihydro-naphthalen-2-ylmethyl]-3-fluoro-piperidine-3-carboxylic acid] | −30 | 14 |
| CC(C)n1nc(Cl)c2cc(COc3ccc4c(c3)CCC(CN3CCC(C(=O)O)CC3)=C4Cl)cnc21 [Example 159, 1-[1-chloro-6-(3-chloro-1-isopropyl-1H-pyrazolo[3,4-b]pyridin-5-ylmethoxy)-3,4-dihydro-naphthalen-2-ylmethyl]-piperidine-4-carboxylic acid] | −80 | 12 |
| CC(C)n1nc(Cl)c2cc(COc3ccc4c(c3)CCC(CN3CCC(F)(C(=O)O)C3)=C4Cl)ccc21 (stereo not shown) [Example 161, 1-[1-chloro-6-(3-chloro-1-isopropyl-1H-indazol-5-ylmethoxy)-3,4-dihydro-naphthalen-2-ylmethyl]-3-fluoro-pyrrolidine-3-carboxylic acid] | −65 | 3 |
